Data taken from patent publication US8242240B2, “Anti-inflammatory compounds and uses thereof” (Yale University, priority 2000, dated 2012).

Tests used:
NF-κB = experiment: pBIIX-luciferase NF-κB reporter assay in HeLa cells; assay type: cell-based, human; conditions: for basal NF-κB activity (luciferase reporter): no TNFα; for TNFα-induced NF-κB activation (luciferase reporter): peptide 100 and 200 μM 2 h, TNFα 10 ng/ml 4 h
Procedure: (§1) (A) Sequences of wild-type (SEQ ID NO:18) and mutant (SEQ ID NO:19 forms of IKKβ NBD peptide. (B) GST-pull-down analysis was performed using either GST-NEMO-in vitro translated IKKβ (upper panel) or GST-IKKβ-(644-756)-in vitro translated NEMO (lower panel). The assay was performed in the absence (no peptide) or presence of increasing concentrations ([…], 500 or 1000 μM) of either mutant (MUT) (SEQ ID NO:19) or wild-type (WT) NBD (SEQ ID NO:18). (C) HeLa cells were incubated with either peptide (200 μM) for the times indicated. Following lysis, the IKK complex was immunoprecipitated using anti-NEMO and the resulting immunoblot probed with anti-IKKβ. (D) Gel image showing anti-NEMO immunoprecipitation. (E) Gel image showing anti-FLAG immunoblot. (F) HeLa cells were incubated for three hours with increasing concentrations: 50, 100 or 200 μM) of each peptide followed by treatment for fifteen minutes with TNFα (10 ng/ml) as indicated (+). Following lysis, nuclear extracts were made and 10 μg of protein from each sample was used for EMSA using a specific [^32P]-labeled κB-site probe. (G) Gel image showing anti-Phospho-C-Jun immunoblot and anti-β-Actin immunoblot. (H) HeLa cells were transfected for forty-eight hours with pBIIX-luciferase then incubated for two hours in the absence (control) or presence of mutant or wild-type NBD peptide (100 and 200 μM of each). Subsequently the cells were either treated with TNFα (10 ng/ml) as indicated (toe panel) or left untreated (bottom panel) for a further four hours after which NF-κB activation was measured by luciferase assay.
For transfection studies, HeLa and COS cells were seeded into either twenty-four well (1×10^5 cells/well) or six well (5×10^5 cells/well) plates and grown for twenty-four hours before transfection of DNA with FUGENE6(Roche) according to the manufacturer's protocol. Cells in twenty-four well and six well trays received a total of 1 μg or 2 μg of DNA respectively. After forty-eight hours cells were lysed with TNT (200 mM NaCl, 20 mM Tris-pH 8.0, 1% Triton-100) and the lysate were used for either immunoprecipitation or luciferase assay (Primage Luciferase Assay System).
The effects of the NBD peptides on signal-induced activation of NF-κB were investigated next. Analysis using electrophoretic mobility shift assay. […] Further, after transfecting HeLa cells with the pBIIX-luciferase reporter, cells were preincubated with wild-type or mutant peptides, treated with TNFα and NF-κB activation measured by the luciferase reporter assay. As shown in FIG. 5H (top panel), the wild-type NBD peptide inhibited TNFα-induced NF-κB activation whereas the mutant had no effect. […]

[1] = system: mice (zymosan-induced peritonitis); experiment: Zymosan-induced peritonitis in mice; assay type: in vivo, mice (C57BL/6NCR); conditions: for PMN accumulation / exudate formation: NBD peptides 200 mg/ml i.p. with zymosan
Procedure: In a second model, peritonitis was induced in mice by intraperitoneal (i.p.) injection of zymosan either alone or in combination with dexamethasone or the NBD peptides. For zymosan-induced peritonitis, measurement of peritoneal exudates and inflammatory cell collections from replicate groups of age and sex matched mice (C57BL/6NCR) were performed as previously described (Getting et al., (1998) Immunology 95, 625-630). Groups of animals were injected concomitantly with one ml zymosan (1 mg/ml) and either dexamethasone (100 mg/ml) or the NBD peptides (200 mg/ml). The concentration of NOX (nitrate plus nitrite) present in the inflammatory exudates was measured using a colorimetric assay kit (Alexis Corporation) according to the manufacturers protocol.

IKKβ-NEMO interaction = molecular target: T1, IKKβ-NEMO interaction (Homo sapiens, UniProt Q9Y6K9); experiment: In vitro GST pull-down of IKKβ/NEMO in the presence of NBD peptides; assay type: binding; conditions: peptide 125, 500 or 1000 μM
T1 construct: bacterially expressed version of full length NEMO fused at its NH2-terminus to glutathione S-transferase; made in house; host or cells: bacteria (GST-NEMO); in vitro translation (IKKβ)
Procedure: as §1
The sequences of the two NBD peptides used in t its study were [[…]][…] (wild-type) (SEQ ID NO: 18) and [[…]][…] (mutant) (SEQ ID NO: 19; FIG. 5A). The antennapedia homeodomain sequence (Derossi et al., (1994) J. Biol. Chem. 269, 10444-10450; U.S. Pat. No. 5,888,762; U.S. Pat. No. 6,015,787; U.S. Pat. No. 6,080,724) is bracketed and the positions of the W to A mutations are underlined. Both peptides were dissolved in DMSO to a stock concentration of 20 mM. For all experiments DMSO alone controls were no different from no peptide controls.
The mutant was identical except that the tryptophan residues (W739 and W741) in the NBD were mutated to alanine. […] To test the ability of the NBD peptides to enter cells and inhibit the IKKβ-NEMO interaction, HeLa cells were incubated with the peptides for different time periods and immunoprecipitated the IKK complex using anti-NEMO. In agreement with the in vitro data (FIG. 5B), wild-type but not mutant disrupted the formation of the endogenous IKK complex (FIG. 5C).

[2] = NBD peptide 200 mg/ml i.p. with zymosan

T1 sequence (Q9Y6K9 whole entry, the tested form may be a part): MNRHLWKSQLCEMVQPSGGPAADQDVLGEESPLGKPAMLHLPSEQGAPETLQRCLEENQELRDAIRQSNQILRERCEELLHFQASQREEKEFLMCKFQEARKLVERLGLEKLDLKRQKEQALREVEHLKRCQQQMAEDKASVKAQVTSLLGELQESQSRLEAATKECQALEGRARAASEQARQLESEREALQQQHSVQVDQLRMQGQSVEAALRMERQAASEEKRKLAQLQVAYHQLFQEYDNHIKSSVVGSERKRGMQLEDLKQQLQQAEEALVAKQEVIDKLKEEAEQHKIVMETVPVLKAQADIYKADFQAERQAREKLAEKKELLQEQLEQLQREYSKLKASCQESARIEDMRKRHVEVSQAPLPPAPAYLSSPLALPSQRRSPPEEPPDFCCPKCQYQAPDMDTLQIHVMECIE

| inhibition of in vitro pull-down of [35S]-labeled IKKβ by GST-NEMO (IKKβ-NEMO interaction) | inhibition of in vitro pull-down of [35S]-labeled NEMO by GST-IKKβ-(644-756) (IKKβ-NEMO interaction) | Substance | basal NF-κB activity (luciferase reporter) (NF-κB; listed as cell-permeable NBD peptide) | basal NF-κB activity (luciferase reporter) (NF-κB; listed as wild-type peptide) | TNFα-induced NF-κB activation (luciferase reporter) (NF-κB) | reduction of NOX in peritoneal exudates [1, 2] [%] | PMN accumulation [1] | exudate formation [1] | effect on NOX in peritoneal exudates [1, 2] |
| --- | --- | --- | --- | --- | --- | --- | --- | --- | --- |
| dose-dependently inhibited | dose-dependently inhibited | [DRQIKIWFQNRRMKWKK]TALDWSWLQTE (DRQIKIWFQNRRMKWKKTALDWSWLQTE; Description of Unknown: Unknown wildtype NBD peptide) [wild-type NBD peptide] | modest increase | enhanced | inhibited | 66±4 | significantly reduced | significantly reduced |  |
| not | not | [DRQIKIWFQNRRMKWKK]TALDASALQTE (DRQIKIWFQNRRMKWKKTALDASALQTE; Description of Artificial Sequence: Synthetic Mutant NBD peptide) [identical to wild-type NBD peptide except W739 and W741 mutated to alanine, reference compound] |  |  | no effect |  | no effect | no effect | no effect |
